Results from ChEMBL document CHEMBL5154706, “Synthesis of lathyrane diterpenoid nitrogen-containing heterocyclic derivatives and evaluation of their anti-inflammatory activities” (Bioorg Med Chem, 2022).
The source made the active and inactive calls. No cut-off for these calls is given here.

System: RAW264.7
Experiment: Antiinflammatory activity against mouse RAW264.7 cells assessed as inhibition of LPS-induced NO production preincubated for 3 hrs followed by LPS stimulation and measured after 24 hrs by Griess reagent based assay
Type: functional, cell-based
Conditions: not given

SMILES | IC50 [µM]
C=C1CC[C@H]2[C@@H](/C=C(\C)C(=O)[C@@]3(O)C[C@H](C)[C@H](O)[C@@H]3[C@H]1O)C2(C)C | 11.1
C=C1CC[C@H]2[C@@H](/C=C(\C)C(=O)[C@@]3(O)C[C@H](C)[C@H](O)[C@@H]3[C@H]1OC(=O)c1cnc(NC(=O)c3ccccc3)s1)C2(C)C | 7.03
C=C1CC[C@H]2[C@@H](/C=C(\C)C(=O)[C@@]3(O)C[C@H](C)[C@H](O)[C@@H]3[C@H]1OC(=O)c1cnc(NC(=O)/C=C/c3ccccc3)s1)C2(C)C | > 20
C=C1CC[C@H]2[C@@H](/C=C(\C)C(=O)[C@@]3(O)C[C@H](C)[C@H](O)[C@@H]3[C@H]1OC(=O)c1cn(-c3ccccc3)nc1-c1ccc(C(F)(F)F)cc1)C2(C)C | 11.2
C/C1=C\[C@@H]2[C@H](CC[C@]3(CO3)[C@H](OC(=O)CCC(=O)OCCCCOc3no[n+]([O-])c3S(=O)(=O)c3ccccc3)[C@H]3[C@@H](O)[C@@H](C)C[C@]3(O)C1=O)C2(C)C | 1.82
C=C1CC[C@H]2[C@@H](/C=C(\C)C(=O)[C@@]3(O)C[C@H](C)[C@H](O)[C@@H]3[C@H]1OC(=O)c1cnc(NC(C)=O)s1)C2(C)C | > 20
C/C1=C\[C@@H]2[C@H](CC[C@]3(CO3)[C@H](O)[C@H]3[C@@H](O)[C@@H](C)C[C@]3(O)C1=O)C2(C)C | 25.6
C=C1CC[C@H]2[C@@H](/C=C(\C)C(=O)[C@@]3(O)C[C@H](C)[C@H](O)[C@@H]3[C@H]1OC(=O)CCN1C(=O)CS/C1=N\c1ccccc1)C2(C)C | 8.24
C/C1=C\[C@@H]2[C@H](CC[C@]3(CO3)[C@H](OC(=O)CCC(=O)OCCOCCOc3no[n+]([O-])c3S(=O)(=O)c3ccccc3)[C@H]3[C@@H](O)[C@@H](C)C[C@]3(O)C1=O)C2(C)C | 3.38
C=C1CC[C@H]2[C@@H](/C=C(\C)C(=O)[C@@]3(OC(C)=O)C[C@H](C)[C@H](OC(=O)c4ccccc4)[C@@H]3[C@H]1OC(C)=O)C2(C)C | 8.06
C=C1CC[C@H]2[C@@H](/C=C(\C)C(=O)[C@@]3(O)C[C@H](C)[C@H](O)[C@@H]3[C@H]1OC(=O)CCC(=O)OCCCCOc1no[n+]([O-])c1S(=O)(=O)c1ccccc1)C2(C)C | 1.55
C/C1=C\[C@@H]2[C@H](CC[C@]3(CO3)[C@H](OC(=O)CCC(=O)OCc3ccc(COc4no[n+]([O-])c4S(=O)(=O)c4ccccc4)cc3)[C@H]3[C@@H](O)[C@@H](C)C[C@]3(O)C1=O)C2(C)C | 2.61
C/C1=C\[C@@H]2[C@H](CC[C@]3(CO3)[C@H](OC(=O)CCC(=O)NCCOc3no[n+]([O-])c3S(=O)(=O)c3ccccc3)[C@H]3[C@@H](O)[C@@H](C)C[C@]3(O)C1=O)C2(C)C | 1.43
C=C1CC[C@H]2[C@@H](/C=C(\C)C(=O)[C@@]3(O)C[C@H](C)[C@H](O)[C@@H]3[C@H]1OC(=O)CCC(=O)NCCOc1no[n+]([O-])c1S(=O)(=O)c1ccccc1)C2(C)C | 1.19
C=C1CC[C@H]2[C@@H](/C=C(\C)C(=O)[C@@]3(O)C[C@H](C)[C@H](O)[C@@H]3[C@H]1OC(=O)CCC(=O)OCc1ccc(COc3no[n+]([O-])c3S(=O)(=O)c3ccccc3)cc1)C2(C)C | 5.36
C=C1CC[C@H]2[C@@H](/C=C(\C)C(=O)[C@@]3(O)C[C@H](C)[C@H](O)[C@@H]3[C@H]1OC(=O)c1cnc(NC(=O)C3CCCCC3)s1)C2(C)C | 5.53
C/C1=C\[C@@H]2[C@H](CC[C@]3(CO3)[C@H](OC(=O)CCC(=O)OCC#CCOc3no[n+]([O-])c3S(=O)(=O)c3ccccc3)[C@H]3[C@@H](O)[C@@H](C)C[C@]3(O)C1=O)C2(C)C | 1
C=C1CC[C@H]2[C@@H](/C=C(\C)C(=O)[C@@]3(O)C[C@H](C)[C@H](O)[C@@H]3[C@H]1OC(=O)CCC(=O)OCc1c(-c3ccccc3)no[n+]1[O-])C2(C)C | 5.47
C=C1CC[C@H]2[C@@H](/C=C(\C)C(=O)[C@@]3(O)C[C@H](C)[C@H](O)[C@@H]3[C@H]1OC(=O)CCC(=O)OCC#CCOc1no[n+]([O-])c1S(=O)(=O)c1ccccc1)C2(C)C | 0.85
C/C1=C\[C@@H]2[C@H](CC[C@]3(CO3)[C@H](OC(=O)c3cnc(NC(=O)C4CCCCC4)s3)[C@H]3[C@@H](O)[C@@H](C)C[C@]3(O)C1=O)C2(C)C | 1.49

The remaining lines, values ahead:

IC50 [µM] | SMILES
> 20 | C=C1CC[C@H]2[C@@H](/C=C(\C)C(=O)[C@@]3(O)C[C@H](C)[C@H](O)[C@@H]3[C@H]1OC(=O)c1cn(-c3ccccc3)nc1-c1ccc(N(C)C)cc1)C2(C)C
10.8 | C=C1CC[C@H]2[C@@H](/C=C(\C)C(=O)[C@@]3(O)C[C@H](C)[C@H](O)[C@@H]3[C@H]1OC(=O)c1cn(-c3ccccc3)nc1-c1ccc(F)cc1)C2(C)C
> 20 | C/C1=C\[C@@H]2[C@H](CC[C@]3(CO3)[C@H](OC(=O)c3cnc(NC(=O)/C=C/c4ccccc4)s3)[C@H]3[C@@H](O)[C@@H](C)C[C@]3(O)C1=O)C2(C)C
> 20 | C=C1CC[C@H]2[C@@H](/C=C(\C)C(=O)[C@@]3(O)C[C@H](C)[C@H](O)[C@@H]3[C@H]1OC(=O)c1cn(-c3ccccc3)nc1-c1ccc(OC)cc1)C2(C)C
13.3 | CCn1cc(C(=O)O[C@@H]2[C@H]3[C@@H](O)[C@@H](C)C[C@]3(O)C(=O)/C(C)=C/[C@@H]3[C@H](CC[C@]24CO4)C3(C)C)c(-c2ccc(F)cc2)n1
> 20 | C/C1=C\[C@@H]2[C@H](CC[C@]3(CO3)[C@H](OC(=O)c3cn(-c4ccccc4)nc3-c3ccc(Cl)cc3)[C@H]3[C@@H](O)[C@@H](C)C[C@]3(O)C1=O)C2(C)C
10.6 | CCn1cc(C(=O)O[C@@H]2[C@H]3[C@@H](O)[C@@H](C)C[C@]3(O)C(=O)/C(C)=C/[C@@H]3[C@H](CC[C@]24CO4)C3(C)C)c(-c2ccc(C(F)(F)F)cc2)n1
> 20 | C=C1CC[C@H]2[C@@H](/C=C(\C)C(=O)[C@@]3(O)C[C@H](C)[C@H](O)[C@@H]3[C@H]1OC(=O)c1cn(CC)nc1-c1ccc(F)cc1)C2(C)C
7.8 | C=C1CC[C@H]2[C@@H](/C=C(\C)C(=O)[C@@]3(O)C[C@H](C)[C@H](O)[C@@H]3[C@H]1OC(=O)c1cn(CC)nc1-c1ccc(C(F)(F)F)cc1)C2(C)C
> 20 | C=C1CC[C@H]2[C@@H](/C=C(\C)C(=O)[C@@]3(O)C[C@H](C)[C@H](O)[C@@H]3[C@H]1OC(=O)c1cn(-c3ccccc3)nc1-c1ccc(C)cc1)C2(C)C
> 20 | C/C1=C\[C@@H]2[C@H](CC[C@]3(CO3)[C@H](OC(=O)c3cn(-c4ccccc4)nc3-c3ccc(C)cc3)[C@H]3[C@@H](O)[C@@H](C)C[C@]3(O)C1=O)C2(C)C
> 20 | C/C1=C\[C@@H]2[C@H](CC[C@]3(CO3)[C@H](OC(=O)c3cn(-c4ccccc4)nc3-c3ccc(N(C)C)cc3)[C@H]3[C@@H](O)[C@@H](C)C[C@]3(O)C1=O)C2(C)C
7.73 | C=C1CC[C@H]2[C@@H](/C=C(\C)C(=O)[C@@]3(O)C[C@H](C)[C@H](O)[C@@H]3[C@H]1OC(=O)c1cn(CC)nc1-c1ccc(C)cc1)C2(C)C
> 20 | CC(=O)Nc1ncc(C(=O)O[C@@H]2[C@H]3[C@@H](O)[C@@H](C)C[C@]3(O)C(=O)/C(C)=C/[C@@H]3[C@H](CC[C@]24CO4)C3(C)C)s1
10.9 | C/C1=C\[C@@H]2[C@H](CC[C@]3(CO3)[C@H](OC(=O)c3cnc(NC(=O)c4ccccc4)s3)[C@H]3[C@@H](O)[C@@H](C)C[C@]3(O)C1=O)C2(C)C
> 20 | C/C1=C\[C@@H]2[C@H](CC[C@]3(CO3)[C@H](OC(=O)CCN3C(=O)CS/C3=N\c3ccccc3)[C@H]3[C@@H](O)[C@@H](C)C[C@]3(O)C1=O)C2(C)C
9.38 | C/C1=C\[C@@H]2[C@H](CC[C@]3(CO3)[C@H](OC(=O)CCC(=O)OCc3c(-c4ccccc4)no[n+]3[O-])[C@H]3[C@@H](O)[C@@H](C)C[C@]3(O)C1=O)C2(C)C
15.7 | CCn1cc(C(=O)O[C@@H]2[C@H]3[C@@H](O)[C@@H](C)C[C@]3(O)C(=O)/C(C)=C/[C@@H]3[C@H](CC[C@]24CO4)C3(C)C)c(-c2ccc(Cl)cc2)n1
> 20 | CCn1cc(C(=O)O[C@@H]2[C@H]3[C@@H](O)[C@@H](C)C[C@]3(O)C(=O)/C(C)=C/[C@@H]3[C@H](CC[C@]24CO4)C3(C)C)c(-c2ccc(N(C)C)cc2)n1
10.6 | C/C1=C\[C@@H]2[C@H](CC[C@]3(CO3)[C@H](OC(=O)c3cn(-c4ccccc4)nc3-c3ccc(F)cc3)[C@H]3[C@@H](O)[C@@H](C)C[C@]3(O)C1=O)C2(C)C
5.84 | C=C1CC[C@H]2[C@@H](/C=C(\C)C(=O)[C@@]3(O)C[C@H](C)[C@H](O)[C@@H]3[C@H]1OC(=O)c1cn(CC)nc1-c1ccc(Cl)cc1)C2(C)C
> 20 | CCn1cc(C(=O)O[C@@H]2[C@H]3[C@@H](O)[C@@H](C)C[C@]3(O)C(=O)/C(C)=C/[C@@H]3[C@H](CC[C@]24CO4)C3(C)C)c(-c2ccc(C)cc2)n1
> 20 | C=C1CC[C@H]2[C@@H](/C=C(\C)C(=O)[C@@]3(O)C[C@H](C)[C@H](O)[C@@H]3[C@H]1OC(=O)c1cn(-c3ccccc3)nc1-c1ccc(Cl)cc1)C2(C)C

System: RAW264.7
Experiment: Antiinflammatory activity against mouse RAW264.7 cells assessed as inhibition of LPS-induced ROS generation at […] preincubated for 3 hrs followed by LPS stimulation and measured after 12 hrs by DCFH-DA probe based flow cytometry
Type: functional, cell-based
Conditions: time 15.0 hrs

SMILES | inhibition
CC(=O)N[C@@H](CS)C(=O)O | Active
